One experiment concerns NCI-H69 cells. Nature of the experiment: In vitro cell inhibition assay - NCI-H69 cell proliferation (CellTiter-Glo). The experiment is classed as cell-based. The following applies: Homo sapiens, NCI-H69, H69 small cell lung cancer cell proliferation. Summed up:
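Over 7 days at 37° C. and 5% CO2, cells grew in RPMI-640 supplemented with 20% FBS in the presence of eight 5-fold-spaced compound concentrations.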
(In ATP-based viability assays light output follows the ATP content of the culture.)

Another experiment has as its target pan-HDAC. Put plainly: In vitro enzyme inhibition assay - HDAC (HDAC-Glo I/II), pan-HDAC. The experiment is classed as biochemical. Summed up: (§1)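 Eight compound concentrations (5-fold gradient; 1 mM DMSO stock) were assayed by HDAC-Glo I/II luminescence. IC50 was obtained by four-parameter fitting.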
A further experiment deals with NCI-H1417 cells. Nature of the experiment: In vitro cell inhibition assay - H1417 cell proliferation (CellTiter-Glo). The experiment is classed as cell-based. The following applies: Homo sapiens, NCI-H1417, H1417 small cell lung cancer cell proliferation. Summed up:
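Cells exposed to 8 compound concentrations (5-fold dilutions) in BEGM with 10% FBS for 7 days at 37° C., 5% CO2. Viable cells measured by CellTiter-Glo luminescence; inhibition versus no-inhibitor and no-cell controls, IC50 fitted.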

The next experiment concerns the target HDAC1 (Homo sapiens (Human), UniProt Q13547). Nature of the experiment: In vitro enzyme inhibition assay - HDAC (HDAC-Glo I/II), HDAC1. The experiment is classed as biochemical. The following applies: read-out: HDAC IC50 (nM) HDAC 1. Summed up:
as §1

Another experiment relates to NCI-H526 cells. Nature of the experiment: In vitro cell inhibition assay - NCI-H526 cell proliferation (CellTiter-Glo). The experiment is classed as cell-based. The following applies: Homo sapiens, NCI-H526, 120 h, H526 small cell lung cancer cell proliferation, 5 days. Summed up: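 NCI-H526 cells plated at 1×10^3 per well overnight, then treated with 8 concentrations (5-fold dilutions) in RPMI-640 with 10% FBS for 5 days at 37° C., 5% CO2. Viable cells quantified by CellTiter-Glo luminescence; IC50 fitted from inhibition rates relative to no-inhibitor and no-cell controls.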

For a further experiment, the target named is HDAC8 (Homo sapiens (Human), UniProt Q9BY41). Nature of the experiment: In vitro enzyme inhibition assay - HDAC (HDAC-Glo I/II), HDAC8. The experiment is classed as biochemical. The following applies: read-out: HDAC IC50 (nM) HDAC 8. Summed up: as §1
The next experiment addresses LSD1 (Homo sapiens (Human), UniProt O60341). Nature of the experiment: In vitro enzyme inhibition assay - LSD1 (HTRF). The experiment is classed as biochemical. Background: Time-resolved FRET reads energy transfer from a long-lived donor to a nearby acceptor.

Usually IC50 stands for the concentration needed to halve the response being measured.

Counter-ions that a name gives are not always drawn.

HDAC1, sequence (Q13547 whole entry): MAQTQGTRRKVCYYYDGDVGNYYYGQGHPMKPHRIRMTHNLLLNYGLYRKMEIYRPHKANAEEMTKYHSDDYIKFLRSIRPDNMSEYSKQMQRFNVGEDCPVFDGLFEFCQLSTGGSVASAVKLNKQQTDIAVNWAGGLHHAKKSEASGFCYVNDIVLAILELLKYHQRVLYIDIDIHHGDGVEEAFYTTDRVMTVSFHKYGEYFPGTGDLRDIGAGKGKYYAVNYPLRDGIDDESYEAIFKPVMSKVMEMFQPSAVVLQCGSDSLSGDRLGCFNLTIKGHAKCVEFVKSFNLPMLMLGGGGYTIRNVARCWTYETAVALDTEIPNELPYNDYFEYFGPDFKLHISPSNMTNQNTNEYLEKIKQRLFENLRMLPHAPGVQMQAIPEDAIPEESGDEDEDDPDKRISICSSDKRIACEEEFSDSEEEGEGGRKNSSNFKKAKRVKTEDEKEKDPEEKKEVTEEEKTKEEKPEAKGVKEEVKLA
HDAC8, sequence (Q9BY41 whole entry): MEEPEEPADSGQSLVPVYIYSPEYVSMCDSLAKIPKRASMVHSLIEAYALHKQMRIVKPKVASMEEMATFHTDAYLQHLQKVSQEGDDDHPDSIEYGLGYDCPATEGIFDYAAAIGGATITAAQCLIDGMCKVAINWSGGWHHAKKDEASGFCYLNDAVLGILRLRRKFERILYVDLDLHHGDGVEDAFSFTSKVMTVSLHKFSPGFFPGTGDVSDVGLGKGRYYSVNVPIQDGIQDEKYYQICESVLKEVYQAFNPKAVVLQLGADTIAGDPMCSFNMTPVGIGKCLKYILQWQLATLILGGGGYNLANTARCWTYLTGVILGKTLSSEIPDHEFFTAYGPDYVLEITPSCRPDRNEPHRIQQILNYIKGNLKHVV

For `CC(C)(O)COc1ccc(-c2cnc(N3CCC(NCc4ccc(OCC(=O)NO)cc4)CC3)c(C#N)c2-c2ccc(C#N)c(F)c2)cc1O` [Example 192, 2-(4-(((1-(3-cyano-4-(4-cyano-3-fluorophenyl)-5-(3-hydroxy-4-(2-hydroxy-2-methylpropoxy)phenyl)pyridin-2-yl)piperidin-4-yl)amino)methyl)phenoxy)-N-hydroxyacetamide formate], the IC50 was determined as 28 nM in the experiment on NCI-H69 cells; 2.75 nM at pan-HDAC; 1.98 nM in the experiment with NCI-H1417 cells; 1.49 nM at HDAC1; 82.1 nM in the experiment with NCI-H526 cells; 64.9 nM on HDAC8. The compound also displayed an IC50 against LSD1 of 0.45 nM.

Consider `CC(C)(O)COc1ccc(-c2cnc(N3CCC(NCc4ccc(/C=C(\F)C(=O)NO)cc4)CC3)c(C#N)c2-c2ccc(C#N)c(F)c2)cc1O` [Example 198, (Z)-3-(4-(((1-(3-Cyano-4-(4-cyano-3-fluorophenyl)-5-(3-hydroxy-4-(2-hydroxy-2-methylpropoxy)phenyl)pyridin-2-yl)piperidin-4-yl)amino)methyl)phenyl)-2-fluoro-N-hydroxyacrylamide formate], for which the half-inhibitory concentration (IC50) in the experiment with NCI-H69 cells worked out at 23.7 nM; against pan-HDAC, 6.35 nM; in the experiment on NCI-H1417 cells, 0.63 nM; at HDAC1 it was 4.85 nM; in the experiment on NCI-H526 cells, 21.2 nM; at HDAC8, 67.2 nM. Besides, 0.4 nM corresponded to half-maximal inhibition against LSD1 (IC50).

With `CC(C)(O)COc1ccc(-c2cnc(N3CCC(NCc4ccc(/C=C/C(=O)NO)nc4)CC3)c(C#N)c2-c2ccc(C#N)c(F)c2)cc1O` [Example 199, (E)-3-(5-((1-(3-Cyano-4-(4-cyano-3-fluorophenyl)-5-(3-hydroxy-4-(2-hydroxy-2-methylpropoxy)phenyl)pyridin-2-yl)piperidin-4-yl)amino)methyl) pyridin-2-yl)-N-hydroxyacrylamide formate], the IC50 in the experiment with NCI-H69 cells was 9.24 nM; at pan-HDAC, 2.77 nM; with NCI-H1417 cells, 2.78 nM; on HDAC1, 1.92 nM; in the experiment with NCI-H526 cells, 4.05 nM; on HDAC8, 33.9 nM. For the same compound, the IC50 against LSD1 was 0.54 nM.

With `COc1ccc(-c2cnc(N3CCC(NCc4ccc(/C=C/C(=O)NO)c(F)c4)CC3)c(C#N)c2-c2ccc(C#N)c(F)c2)cc1O` [Example 200, (E)-3-(4-(((1-(3-Cyano-4-(4-cyano-3-fluorophenyl)-5-(3-hydroxy-4-methoxyphenyl)pyridin-2-yl)piperidin-4-yl)amino)methyl)-2-fluorophenyl)-N-hydroxyacrylamide formate], the IC50 with NCI-H69 cells was 5.16 nM; at pan-HDAC, 4.18 nM; in the experiment with NCI-H1417 cells, 2.27 nM; on HDAC1, 2.95 nM; in the experiment with NCI-H526 cells, 4.1 nM; on HDAC8, 127 nM. This compound registered an IC50 at LSD1 of 0.45 nM.

For the compound `COc1ccc(-c2cnc(N3CCC(NCc4ccc(CCC(=O)NO)c(F)c4)CC3)c(C#N)c2-c2ccc(C#N)c(F)c2)cc1O` [Example 201, 3-(4-((1-(3-Cyano-4-(4-cyano-3-fluorophenyl)-5-(3-hydroxy-4-methoxyphenyl)pyridin-2-yl)piperidin-4-yl)amino)methyl)-2-fluorophenyl)-N-hydroxypropanamide formate], the IC50 in the experiment on NCI-H69 cells worked out at 56.4 nM; on pan-HDAC, 7.71 nM; in the experiment with NCI-H1417 cells it was 3.33 nM; on HDAC1, 4.81 nM; in the experiment on NCI-H526 cells it was 20.5 nM; on HDAC8, 438 nM. In addition, on LSD1, the IC50 stood at 0.22 nM.

For `COc1ccc(-c2cnc(N3CCC(NCc4cnc(/C=C/C(=O)NO)nc4)CC3)c(C)c2-c2ccc(C#N)c(F)c2)cc1O` [Example 202, (E)-3-(5-(((1-(4-(4-Cyano-3-fluorophenyl)-5-(3-hydroxy-4-methoxyphenyl)-3-methylpyridin-2-yl)piperidin-4-yl)amino)methyl)pyrimidin-2-yl)-N-hydroxyacrylamide formate], the IC50 with NCI-H69 cells turned out to be 13.6 nM; on pan-HDAC it was 1.85 nM; in the experiment with NCI-H1417 cells, 6.15 nM; on HDAC1, 0.88 nM; with NCI-H526 cells, 4.35 nM; on HDAC8, 9.03 nM. Inhibition on LSD1 was half-maximal at 74.2 nM (IC50).

Turning to `N#Cc1ccc(-c2c(-c3ccc(N4CCOCC4)c(O)c3)cnc(N3CCC(NCc4ccc(/C=C/C(=O)NO)cc4)CC3)c2C#N)cc1F` [Example 203, (E)-3-(4-(((1-(3-Cyano-4-(4-cyano-3-fluorophenyl)-5-(3-hydroxy-4-morpholinophenyl)pyridin-2-yl)piperidin-4-yl)amino)methyl)phenyl-N-hydroxyacrylamide formate], the IC50 worked out at 9.38 nM in the experiment on NCI-H69 cells; 1.39 nM at pan-HDAC; 1.99 nM with NCI-H1417 cells; 1.58 nM on HDAC1; 12.3 nM with NCI-H526 cells; 25.3 nM on HDAC8. In addition, the 50% inhibitory concentration (IC50) at LSD1 came out at 1.03 nM.

For `CC(C)(O)COc1ccc(-c2cnc(N3CCC(NCc4ccc(/C=C/C(=O)NO)cn4)CC3)c(C#N)c2-c2ccc(C#N)c(F)c2)cc1O` [Example 205, (E)-3-(6-(((1-(3-Cyano-4-(4-cyano-3-fluorophenyl)-5-(3-hydroxy-4-(2-hydroxy-2-methylpropoxy)phenyl)pyridin-2-yl)piperidin-4-yl)amino)methyl)pyridin-3-yl)-N-hydroxyacrylamide formate], the IC50 in the experiment on NCI-H69 cells worked out at 25.2 nM; against pan-HDAC, 4.37 nM; in the experiment with NCI-H1417 cells it was 6.86 nM; at HDAC1, 3.08 nM; in the experiment with NCI-H526 cells, 39.2 nM; on HDAC8, 100 nM. For the same compound, the IC50 at LSD1 came to 1.91 nM.

Turning to `COc1ccc(-c2cnc(N3CCC(C)(NCc4cnc(/C=C/C(=O)NO)nc4)CC3)c(C#N)c2-c2ccc(C#N)c(F)c2)cc1O` [Example 206, (E)-3-(5-(((1-(3-Cyano-4-(4-cyano-3-fluorophenyl)-5-(3-hydroxy-4-methoxyphenyl)pyridin-2-yl)-4-methylpiperidin-4-yl)amino)methyl)pyrimidin-2-yl)-N-hydroxyacrylamide formate], the IC50 worked out at 94.7 nM with NCI-H69 cells; 11.5 nM on pan-HDAC; 6.21 nM with NCI-H1417 cells; 32.9 nM at HDAC1; 106 nM in the experiment with NCI-H526 cells; 32.5 nM on HDAC8. The compound also displayed an IC50 against LSD1 of 2.03 nM.

As to `Cc1c(N2CCC(NCc3ccc(/C=C/C(=O)NO)cc3)CC2)ncc(-c2ccc(OCC(C)(C)O)c(O)c2)c1-c1ccc(C#N)c(F)c1` [Example 207, (E)-3-(4-(((1-(4-(4-Cyano-3-fluorophenyl)-5-(3-hydroxy-4-(2-hydroxy-2-methylpropoxy)phenyl)-3-methylpyridin-2-yl)piperidin-4-yl)amino)methyl)phenyl)-N-hydroxyacrylamide hydrochloride], the IC50 came to 33.6 nM with NCI-H69 cells; 12.4 nM at pan-HDAC; 9.5 nM in the experiment with NCI-H1417 cells; 2.51 nM at HDAC1; 26.6 nM in the experiment with NCI-H526 cells; 170 nM at HDAC8. Moreover, it took 6.65 nM to reach half-maximal inhibition on LSD1 (IC50).

In the case of `COc1ccc(-c2cnc(N3CCC(NCc4ccc(/C=C/C(=O)NO)cc4)CC3)c(C#N)c2-c2ccc(C#N)nc2)cc1O` [Example 208, (E)-3-(4-(((1-(3′,6-Dicyano-5′-(3-hydroxy-4-methoxyphenyl)-[3,4′-bipyridin]-2′-yl)piperidin-4-yl)amino)methyl)phenyl)-N-hydroxyacrylamide], the IC50 in the experiment with NCI-H69 cells came out at 4.62 nM; at pan-HDAC it was 1.13 nM; in the experiment on NCI-H1417 cells, 2.2 nM; at HDAC1, 1.74 nM; in the experiment on NCI-H526 cells, 3.82 nM; at HDAC8, 17.2 nM. Half-maximal inhibition against LSD1 (IC50) required 0.73 nM.

For the compound `COc1ccc(-c2cnc(N3CCC(NC(C)c4ccc(/C=C/C(=O)NO)cc4)CC3)c(C#N)c2-c2ccc(C#N)c(F)c2)cc1O` (stereo not shown) [Example 210, (E)-3-(4-(1-((1-(3-Cyano-4-(4-cyano-3-fluorophenyl)-5-(3-hydroxy-4-methoxyphenyl)pyridin-2-yl)piperidin-4-yl)amino)ethyl)phenyl)-N-hydroxyacrylamide formate], the IC50 was 15.1 nM in the experiment on NCI-H69 cells; 2.5 nM against pan-HDAC; 3.53 nM with NCI-H1417 cells; 4.44 nM on HDAC1; 5.86 nM in the experiment with NCI-H526 cells; 456 nM at HDAC8. The compound further had an IC50 against LSD1 of 1.13 nM.

For `COc1ccc(-c2cnc(N3CCC(NCc4ccc(/C=C/C(=O)NO)cc4)CC3)c(CC#N)c2-c2ccc(C#N)c(F)c2)cc1O` [Example 233, (E)-3-(4-(((1-(4-(4-cyano-3-fluorophenyl)-3-(cyanomethyl)-5-(3-hydroxy-4-methoxyphenyl)pyridin-2-yl)piperidin-4-yl)amino)methyl)phenyl)-N-hydroxyacrylamide formate], the half-inhibitory concentration (IC50) with NCI-H69 cells turned out to be 3.81 nM; on pan-HDAC, 2.23 nM; with NCI-H1417 cells, 10.2 nM; at HDAC1, 0.43 nM; in the experiment on NCI-H526 cells, 8.35 nM; at HDAC8 it was 42.1 nM. Also, the IC50 against LSD1 was 1.76 nM.

The record behind these values is patent publication US20250304549A1, “HYDROXYAMIDE DERIVATIVE AND USE THEREOF” (SICHUAN HUIYU PHARMACEUTICAL CO., LTD., priority 2022, published 2025).
